From patent US11691951B2 (Curtana Pharmaceuticals, Inc., priority 2015, dated 2023)

What follows are compounds tested on GBM8 cells (human glioblastoma neurosphere cell culture) (assay: GBM8 viability assay (Cell Titer Glo luminescence, 3 days)). Conditions: 72 h, 3 days incubation.
Format: cell-based
Description: Example 283: GBM4 and GBM8 Viability Assay
Cell culture medium was prepared from a NSA proliferation kit (Neurocult) and NeuroCult supplements (Stemcell Tech Cat. #05751) and treated with 20 μL of 10 μg/mL rh EGF, 10 μL of 10 μg/mL rh bFGF and 10 μL of 0.2% Heparin. In this medium, human glioblastoma cells were cultured in ultra-low attachment tissue culture flasks until 1×10^6 cells ml was achieved (GBM4 and GBM8 are distinct neurosphere cell cultures derived from these human patient tissues). GBM4 and GBM8 cells were dissociated and 10 mL of media containing 4000 human glioblastoma cells per 90 uL were transferred to an ultra-low binding 96-well plate and incubated at 37° C. overnight. On the following day, 10 μL of a 1% DMSO solution of test compound in assay medium was added to wells containing the cell suspension and the mixture incubated at 37° C. for 3 days. At this time, the plate was removed from the incubator and allowed to reach room temperature. After about 30 minutes, 50 μL of Cell Titer Glo solution was added to each well and the plate shaken for 1 minute at low speed. After 10 minutes luminescence was recorded using a Tecan Safire2 reader.
Reduction in luminescence compared to DMSO only control wells was used to determine the percentage inhibition of cell growth. IC50s were calculated using the % inhibition of luminescence for serial dilutions of compounds fitted to a 4-parameter fit within the Prism (San Diego) curve fitting program.

| SMILES | IC50 |
| --- | --- |
| CNCCCN(C)c1cc(C)nc(NC(=O)Nc2ccc(F)c(C(F)(F)F)c2)n1 [Compound 113] | 1 to 10 µM |
| CNCCNc1cc(C)nc(NC(=O)Nc2ccc(Cl)c(Cl)c2)n1 [Compound 28] | < 1 µM |
| CNCCCNc1cc(C)nc(NC(=O)Nc2ccc3c(c2)OCO3)n1 [Compound 289, 1-(benzo[d][1,3]dioxol-5-yl)-3-(4-methyl-6-((3-(methylamino)propyl)amino)pyrimidin-2-yl)urea] | 1 to 10 µM |
| Cc1cc(NCCCc2ccccn2)nc(NC(=O)Nc2ccc(Cl)c(Cl)c2)n1 [Compound 21] | 1 to 10 µM |
| COc1cccc(NC(=O)Nc2nc(C)cc(NCCCc3ncc[nH]3)n2)c1 [Compound 149] | 1 to 10 µM |
| Cc1cc(NCCN)nc(NC(=O)Nc2ccc(Cl)c(Cl)c2)n1 [Compound 14] | < 1 µM |
| Cc1cc(NCC(C)O)nc(NC(=O)Nc2ccc(Cl)c(Cl)c2)n1 (stereo not drawn) [Compound 10, 1-{2-[3-(3,4-Dichlorophenyl)ureido]-6-methyl-4-pyrimidinylamino}-2-propanol] | < 1 µM |
| CNCCNc1cc(C)nc(NC(=O)Nc2ccc(Cl)c(C(F)(F)F)c2)n1 [Compound 63, 1-(4-chloro-3-(trifluoromethyl)phenyl)-3-(4-methyl-6-((2-(methylamino)ethyl)amino)pyrimidin-2-yl)urea] | 1 to 10 µM |
| CNCCCNc1cc(C)nc(NC(=O)Nc2ccc3c(c2)OCCO3)n1 [Compound 299, 1-(2,3-dihydrobenzo[b][1,4]dioxin-6-yl)-3-(4-methyl-6-((3-(methylamino)propyl)amino)pyrimidin-2-yl)urea] | 1 to 10 µM |
| Cc1cc(NCC(O)CO)nc(NC(=O)Nc2ccc(Cl)c(C(F)(F)F)c2)n1 (stereo not drawn) [Compound 52] | < 1 µM |
| CNCCCNc1cc(C)nc(NC(=O)Nc2cccc(C(F)(F)F)c2)n1 [Compound 194, 1-(4-methyl-6-((3-(methylamino)propyl)amino)pyrimidin-2-yl)-3-(3-(trifluoromethyl)phenyl)urea] | < 1 µM |
| Cc1cc(NCC(O)CO)nc(NC(=O)Nc2ccccc2)n1 (stereo not drawn) [Compound 78] | < 1 µM |
| Cc1cc(NCCNS(C)(=O)=O)nc(NC(=O)Nc2ccc(OC(F)(F)F)cc2)n1 [Compound 279] | < 1 µM |
| Cc1cc(NCCN(C)C)nc(NC(=O)Nc2cccc(C(F)(F)F)c2)n1 [Compound 189] | 1 to 10 µM |
| Cc1cccc(NC(=O)Nc2nc(C)cc(NCC3CCCN(C)C3)n2)c1 (stereo not drawn) [Compound 214] | 1 to 10 µM |
| Cc1cc(NCCN)nc(NC(=O)Nc2ccc(F)c(C(F)(F)F)c2)n1 [Compound 110] | < 1 µM |

| SMILES | IC50 |
| --- | --- |
| Cc1cc(NCCN(C)C)nc(NC(=O)Nc2ccc3c(c2)OCCO3)n1 [Compound 294] | < 1 µM |
| CCCNc1cc(C)nc(NC(=O)Nc2ccc3c(c2)OCO3)n1 [Compound 286] | < 1 µM |
| CNCCNc1cc(C)nc(NC(=O)Nc2ccc3c(c2)OCCO3)n1 [Compound 298, 1-(2,3-dihydrobenzo[b][1,4]dioxin-6-yl)-3-(4-methyl-6-((2-(methylamino)ethyl)amino)pyrimidin-2-yl)urea] | < 1 µM |
| Cc1cc(NCC2CCCNC2)nc(NC(=O)Nc2ccc(C)c(C)c2)n1 (stereo not drawn) [Compound 271] | < 1 µM |
| Cc1cc(NCCCN(C)C)nc(NC(=O)Nc2cccc(OC(F)(F)F)c2)n1 [Compound 172, 1-(4-((3-(dimethylamino)propyl)amino)-6-methylpyrimidin-2-yl)-3-(3-(trifluoromethoxy)phenyl)urea] | < 1 µM |
| Cc1cc(NCC(C)O)nc(NC(=O)Nc2cccc(C(F)(F)F)c2)n1 (stereo not drawn) [Compound 185] | < 1 µM |
| Cc1cc(NCCN)nc(NC(=O)Nc2ccc(F)c(Cl)c2)n1 [Compound 162] | < 1 µM |
| Cc1cc(NCC(F)(F)CO)nc(NC(=O)Nc2ccc(OC(F)(F)F)cc2)n1 [Compound 94] | < 1 µM |
| Cc1cc(NCCOCCO)nc(NC(=O)Nc2ccc(F)c(C(F)(F)F)c2)n1 [Compound 107] | < 1 µM |
| COC(=O)CCNc1cc(C)nc(NC(=O)Nc2ccc(F)c(Cl)c2)n1 [Compound 167] | 1 to 10 µM |
| Cc1cc(NCCN(C)C)nc(NC(=O)Nc2ccccc2)n1 [Compound 74] | 1 to 10 µM |
| Cc1cc(NCCC(N)=O)nc(NC(=O)Nc2ccc(Cl)c(Cl)c2)n1 [Compound 19] | 1 to 10 µM |
| Cc1cc(NCCN(C)C)nc(NC(=O)Nc2ccc(F)c(Cl)c2)n1 [Compound 159] | 1 to 10 µM |
| CNCCNc1cc(C)nc(NC(=O)Nc2cccc(OC)c2)n1 [Compound 153, 1-(3-methoxyphenyl)-3-(4-methyl-6-((2-(methylamino)ethyl)amino)pyrimidin-2-yl)urea] | 1 to 10 µM |
| Cc1cc(NCC2CCCNC2)nc(NC(=O)Nc2ccc(F)c(C(F)(F)F)c2)n1 (stereo not drawn) [Compound 122] | < 1 µM |

Next, values leading:

| IC50 | SMILES |
| --- | --- |
| < 1 µM | CCCNc1cc(C)nc(NC(=O)Nc2ccc(OC)cc2)n1 [Compound 128] |
| 1 to 10 µM | Cc1ccc(NC(=O)Nc2nc(C)cc(NCCCCN(C)C)n2)cc1 [Compound 245] |
| < 1 µM | COc1ccc(NC(=O)Nc2nc(C)cc(NCCCN)n2)cc1 [Compound 131] |
| < 1 µM | CCNc1cc(C)nc(NC(=O)Nc2ccc(OC(F)(F)F)cc2)n1 [Compound 90] |
| < 1 µM | Cc1ccc(NC(=O)Nc2nc(C)cc(NCCO)n2)cc1 [Compound 240] |
| < 1 µM | Cc1cc(NCCCCN(C)C)nc(NC(=O)Nc2ccc(C)c(C)c2)n1 [Compound 256] |
| 1 to 10 µM | CC(=O)NCCCNc1cc(C)nc(NC(=O)Nc2ccc(Cl)c(Cl)c2)n1 [Compound 272, N-(3-((2-(3-(3,4-dichlorophenyl)ureido)-6-methylpyrimidin-4-yl)amino)propyl)acetamide] |
| 1 to 10 µM | Cc1cc(NCCCN)nc(NC(=O)Nc2ccc(C(F)(F)F)cc2)n1 [Compound 204] |
| < 1 µM | Cc1cc(NCCCCO)nc(NC(=O)Nc2ccc(C(F)(F)F)cc2)n1 [Compound 200] |
| < 1 µM | Cc1cc(NCCO)nc(NC(=O)Nc2ccc(Cl)c(Cl)c2)n1 [Compound 12] |
| < 1 µM | Cc1ccc(NC(=O)Nc2nc(C)cc(NCCN)n2)cc1 [Compound 237] |
| < 1 µM | Cc1ccc(NC(=O)Nc2nc(C)cc(NCCCCN)n2)cc1 [Compound 241] |
| < 1 µM | CC(=O)NCCCNc1cc(C)nc(NC(=O)Nc2ccc(F)c(Cl)c2)n1 [Compound 278] |
| < 1 µM | Cc1cc(NCCOCCO)nc(NC(=O)Nc2ccc(C(F)(F)F)cc2)n1 [Compound 199] |
| < 1 µM | Cc1cccc(NC(=O)Nc2nc(C)cc(NCCO)n2)c1 [Compound 211] |
| 1 to 10 µM | Cc1cc(NCCN(C)C)nc(NC(=O)Nc2ccc(C(C)(C)C)cc2)n1 [Compound 302] |
| < 1 µM | COc1ccc(NC(=O)Nc2nc(C)cc(NCC(C)O)n2)cc1 (stereo not drawn) [Compound 133] |
| < 1 µM | Cc1cc(NCC(C)O)nc(NC(=O)Nc2ccc(C(F)(F)F)cc2)n1 (stereo not drawn) [Compound 198] |

| IC50 | SMILES |
| --- | --- |
| 1 to 10 µM | CNCCNc1cc(C)nc(NC(=O)Nc2cccc(C)c2)n1 [Compound 229, 1-(4-methyl-6-((2-(methylamino)ethyl)amino)pyrimidin-2-yl)-3-(m-tolyl)urea] |
| < 1 µM | Cc1ccc(NC(=O)Nc2nc(C)cc(NCCCCO)n2)cc1 [Compound 239] |
| 1 to 10 µM | COc1cccc(NC(=O)Nc2nc(C)cc(NCCCN)n2)c1 [Compound 143] |
| < 1 µM | Cc1cc(NCCCCN)nc(NC(=O)Nc2ccc(F)c(Cl)c2)n1 [Compound 160] |
| < 1 µM | Cc1cc(NCCN)nc(NC(=O)Nc2ccc(C(F)(F)F)cc2)n1 [Compound 207] |
| < 1 µM | COc1ccc(NC(=O)Nc2nc(C)cc(NCCN)n2)cc1 [Compound 127] |
| 1 to 10 µM | Cc1cc(NCCCN)nc(NC(=O)Nc2ccccc2)n1 [Compound 75] |
| < 1 µM | CCCNc1cc(C)nc(NC(=O)Nc2ccc(OC(F)(F)F)cc2)n1 [Compound 91] |
| < 1 µM | Cc1ccc(NC(=O)Nc2nc(C)cc(NCCCN(C)C)n2)cc1 [Compound 234, 1-(4-((3-(dimethylamino)propyl)amino)-6-methylpyrimidin-2-yl)-3-(p-tolyl)urea] |
| < 1 µM | CC(=O)NCCCNc1cc(C)nc(NC(=O)Nc2ccc(C(C)(C)C)cc2)n1 [Compound 310, N-(3-{2-[3-(4-tert-butyl-phenyl)-ureido]-6-methyl-pyrimidin-4-ylamino}-propyl)-acetamide] |
| 1 to 10 µM | CNCCCCNc1cc(C)nc(NC(=O)Nc2cccc(C)c2)n1 [Compound 231] |
| 1 to 10 µM | Cc1cc(NCCCN(C)C)nc(NC(=O)Nc2ccccc2)n1 [Compound 69, 1-(4-((3-(dimethylamino)propyl)amino)-6-methylpyrimidin-2-yl)-3-phenylurea] |
| < 1 µM | CNCCCNc1cc(C)nc(NC(=O)Nc2ccc(F)c(Cl)c2)n1 [Compound 170] |
| < 1 µM | Cc1cc(NCCCN(C)C)nc(NC(=O)Nc2ccc(F)c(Cl)c2)n1 [Compound 157, 1-(3-chloro-4-fluorophenyl)-3-(4-((3-(dimethylamino)propyl)amino)-6-methylpyrimidin-2-yl)urea] |
| < 1 µM | Cc1cc(NCCN)nc(NC(=O)Nc2ccc(C(C)(C)C)cc2)n1 [Compound 304] |
| < 1 µM | Cc1cc(NCCO)nc(NC(=O)Nc2ccc(F)c(Cl)c2)n1 [Compound 161] |
| < 1 µM | Cc1cc(NCCCCO)nc(NC(=O)Nc2ccc(Cl)c(Cl)c2)n1 [Compound 13] |
